Experimental findings from ChEMBL document CHEMBL3507680, “University of Dundee, Gates Library screen for HepG2 cell viability” are described below.

The series is described as follows: Human HepG2 cell viability assay in 384 well format. Format: toxicity, cell-based. On the set-up: dose 125 nL, time 70.5 hour; concentration not given beside the values. As to conditions: HepG2 cells, read-out: Inhibition.
In the case of `CC(=O)NCc1nnc2n1CCN(c1ncnc3c(C)csc13)CC2`, the cytotoxicity at 70.5 h was found to be 27%. In the case of `O=C(O)C1CN(Cc2cnc(C3CCCCC3)nc2)CCO1` (stereo not drawn), the cytotoxicity at 70.5 h stood at 17.1%.

As to `O=C(CC1CCCC1)N1CCC2(CC1)[C@H](O)C[C@@H]2O`, the cytotoxicity at 70.5 h is -12.2%.

In the case of `Cc1ccc(CCNc2ncc(C)c(-c3ccnn3C)n2)s1`, the cytotoxicity at 70.5 h was -8.02%.

Take `CN(CCC1CCCCO1)c1nncc(-c2ccccc2)n1` (stereo not drawn): the cytotoxicity at 70.5 h was -0.965%. `CC(C)(O)CCc1cccc(C(=O)NCCC2CCOC2)c1` (stereo not drawn): the cytotoxicity at 70.5 h is -0.764%. For the compound `COc1ccc(OC)c(C2CCN(C(=O)C3CCN(C(C)C)CC3)C2)c1` (stereo not drawn), the cytotoxicity at 70.5 h is -8.95%. `CC[C@@]1(O)CCN(C(=O)c2ccc(-n3cnnc3)cc2)C[C@H]1O`: the cytotoxicity at 70.5 h turned out to be 20.9%.

Regarding `Clc1ccccc1OC1CN(CC2CCOC2)C1` (stereo not drawn), the cytotoxicity at 70.5 h worked out at 8.25%. Take `Cc1ccc(CN2CCN(C(=O)C3CCC3)[C@@H]3CS(=O)(=O)C[C@@H]32)cc1C`: the cytotoxicity at 70.5 h is -0.626%. For `CCS(=O)(=O)c1ncc(CN2CCOCC2)n1CCCc1ccccc1`, the cytotoxicity at 70.5 h amounted to 19.9%.

`Cc1cccc(-n2nc(CC(C)C)nc2CCn2ccc(=O)[nH]c2=O)c1`: the cytotoxicity at 70.5 h is -2.09%. Under `CC(C)c1cc(=O)[nH]c(-c2ccccc2CN2CCC(C)(C)C2)n1` stands 5.1%; under `Cc1cc(C2CCC2)nc(N2CCN(Cc3nccn3C)CC2)n1`, -1.45%. Take `CN(C)CCNC(=O)CCC1CCN(C(=O)c2ccc(O)cn2)CC1`: the cytotoxicity at 70.5 h is -6.92%.

As to `CCOC(=O)CCNC(=O)N1CCOC(Cc2cccc(OC)c2)C1` (stereo not drawn), the cytotoxicity at 70.5 h is -9.71%. With `O=C(Cc1ccc(F)cc1Cl)N[C@@H]1CCNC[C@H]1O`, the cytotoxicity at 70.5 h is -6%.

Take `Cc1ccc(OC2(C(=O)O)CCN(C(=O)c3cccc(F)c3)CC2)cn1`: the cytotoxicity at 70.5 h came to 2.13%. `COCc1nnc(C(=O)N2CC(N3CCCCC3)C2)o1`: the cytotoxicity at 70.5 h was -9.01%.

As for `CCS(=O)(=O)N1CC[C@@H]2[C@@H](CCC(=O)N2CCc2ccccc2)C1`, the cytotoxicity at 70.5 h turned out to be 1.58%. Take `CC(C)CN1CCN(C)C(CCO)C1` (stereo not drawn): the cytotoxicity at 70.5 h was -8.39%. Take `CN(Cc1ccncn1)C(=O)CCc1[nH]nc2c1CCCC2`: the cytotoxicity at 70.5 h was -5.7%. As for `Cc1n[nH]c(C)c1CCc1ccc(S(C)(=O)=O)cc1`, the cytotoxicity at 70.5 h is -13.7%.

`Cc1cccc(-n2nc(CC(C)C)nc2CCCC(N)=O)c1`: the cytotoxicity at 70.5 h is -6.23%. Turning to `Cc1nnsc1CN1C[C@@H]2CC[C@H](C1)N(Cc1c(C)noc1C)C2=O`, the cytotoxicity at 70.5 h was -0.902%.

With `Cc1ccsc1C(=O)N1CCC(c2nccn2Cc2ccncc2)CC1`, the cytotoxicity at 70.5 h was -9.49%.

Turning to `Nc1nc(CCC(=O)N2C[C@H](c3ccccc3)[C@@H](N)C2)cs1`, the cytotoxicity at 70.5 h is -20.5%. For the compound `O=C(c1nc(=O)[nH]c2ccccc12)N1CCCC(CC2CC2)(C(=O)O)C1` (stereo not drawn), the cytotoxicity at 70.5 h is -8.79%. For the compound `O=C(NCc1nnc2n1CCC2)c1cn(-c2ccccc2)nn1`, the cytotoxicity at 70.5 h is -5.59%. Regarding `CN(C)Cc1cc(-c2nccn2CCn2cccn2)ccc1O`, the cytotoxicity at 70.5 h is -11.1%. Turning to `O=c1n(CC2CCCO2)nc(CC2CCNCC2)n1-c1ccccc1` (stereo not drawn), the cytotoxicity at 70.5 h was -11%. Under `CN1CC2(CCNCC2)CC1C(=O)NCCCNc1cccnc1` (stereo not drawn) stands 17.1%. Regarding `CCc1nc(N2CCC3(CCC(=O)N(Cc4ccncc4)C3)CC2)no1`, the cytotoxicity at 70.5 h was 10.6%. On to `COc1nccnc1N1CCC(C(=O)O)(n2ccc(C(C)(C)C)n2)CC1`, for which the cytotoxicity at 70.5 h is -10.8%. As for `Cc1nc(C(=O)N2CCN(c3ccc(Cl)c(Cl)c3)CC2)cs1`, the cytotoxicity at 70.5 h is -3.76%.

For the compound `Cc1ncsc1CCN(C)C(=O)c1ncccc1O`, the cytotoxicity at 70.5 h was -7.99%. For the compound `Cc1nn(C)c2nc(N(Cc3ccccc3)CC3CCCO3)sc12` (stereo not drawn), the cytotoxicity at 70.5 h was -11%. Regarding `Cc1ncc(CC(=O)N2CCC3(CCC(=O)N(C4CC4)C3)CC2)c(=O)[nH]1`, the cytotoxicity at 70.5 h was determined as 5.88%.

As to `Cc1cccc2cc(C(=O)N3CCN(S(=O)(=O)N(C)C)CC3)n(C)c12`, the cytotoxicity at 70.5 h was 1.01%. Take `CCc1nnc(CN2CCN(c3cccc(OC)c3)C(=O)C2)o1`: the cytotoxicity at 70.5 h is 12.1%. For the compound `Cc1nc2ccccc2nc1CN1CCn2nc(CCC(=O)O)cc2C1`, the cytotoxicity at 70.5 h is -7.38%.

With `CCn1c(C2CCCN(Cc3cc(OC)cc(OC)c3)C2)nn(C)c1=O` (stereo not drawn), the cytotoxicity at 70.5 h is -4.68%.

As for `CCc1cc(N(C)Cc2cc[nH]n2)n2nc(C)c(C)c2n1`, the cytotoxicity at 70.5 h was -4.44%.

With `CCCc1nc(C(=O)N2CCn3nc(C(=O)OC)cc3C2)cs1`, the cytotoxicity at 70.5 h stood at 16.6%. On to `CC(=O)N[C@@H]1CN(c2nc(C(N)=O)cs2)C[C@H]1c1ccc(C)o1`, for which the cytotoxicity at 70.5 h is -15.3%. Under `Cn1ccnc1CN(CCO)C(=O)C1CCN(C(=O)C2CC2)CC1` stands 0.876%; under `Cc1[nH]c2c(C)ccc(C)c2c1CC(=O)NCC(O)c1cccnc1` (stereo not drawn), -10.2%. Regarding `CCc1cnc(N)nc1NCCCn1nc(C)nc1C`, the cytotoxicity at 70.5 h is -9.39%. As to `COCCN1CCN(C(=O)c2ccc(COC)o2)[C@H]2CS(=O)(=O)C[C@H]21`, the cytotoxicity at 70.5 h stood at 11.2%. Take `CCNc1ccnc(NCC2(N(C)C)CCOCC2)n1`: the cytotoxicity at 70.5 h is -5.81%. The same measure for `Cc1nccn1CC1CCCN(Cc2ccc(-c3cccnc3)cc2)C1` (stereo not drawn): -9.2%; for `COc1ccc(OC)c(C2CCN(C3CCN(C(C)=O)CC3)C2)c1` (stereo not drawn): 2.82%.

With `Cc1ccc(N2CCC(CCN3CCCC3=O)CC2)nn1`, the cytotoxicity at 70.5 h is -22%. Under `c1ccc(OCCCn2ccnc2-c2cn(C3CCNCC3)nn2)cc1` stands -4.27%; under `CN(C)C(Cn1ccnc1-c1ccccc1C(=O)O)c1ccccc1Cl` (stereo not drawn), 10.5%. Take `N#Cc1cccc(N2CCOC3(CNCCOC3)C2)n1` (stereo not drawn): the cytotoxicity at 70.5 h was 15.5%.

For `COCc1nnc(C(=O)N2CCCC(O)C2)o1` (stereo not drawn), the cytotoxicity at 70.5 h is -1.1%.

In the case of `CCc1cc(NCCCOC2CCN(C)CC2)ncn1`, the cytotoxicity at 70.5 h was -15.3%. Under `CN(C)CCNc1cc(-c2ncccc2Cl)c2cc[nH]c2n1` stands 1.89%; under `O=C(C1CCCCO1)N1CCc2ncnc(NCc3ccon3)c2CC1` (stereo not drawn), -9.14%; under `O=C(CC1COCCN1S(=O)(=O)c1ccccc1)NCc1ccccn1` (stereo not drawn), -15.7%. The same measure for `Nc1nc2c(c(N3CCC(CN4CCCC4=O)CC3)n1)CCNCC2`: -8.27%. Turning to `CC[C@H](C)Cn1nc(C2CCNCC2)n(Cc2ccccc2)c1=O`, the cytotoxicity at 70.5 h was -2.63%. With `CNc1nc(C(=O)NCc2cccnc2N(C)C)cs1`, the cytotoxicity at 70.5 h was determined as 1.65%.

Take `CCn1ncnc1CN1CCC(CNC(=O)c2cccc(C)n2)C1` (stereo not drawn): the cytotoxicity at 70.5 h is -5.47%.

Consider `CCc1noc(CN(CC)C(=O)CC2C(=O)NCCN2CC(C)(C)C)n1` (stereo not drawn), for which the cytotoxicity at 70.5 h worked out at 0.786%. Take `OCCn1ncc2c1CN(CC1CCOc3ccccc3C1)C2` (stereo not drawn): the cytotoxicity at 70.5 h is -0.723%.

As to `Cc1nc(C)c(Cn2ccnc2-c2cc(CN(C)C)cs2)s1`, the cytotoxicity at 70.5 h was determined as 2.87%. In the case of `CCCN1CCc2[nH]cnc2C12CCN(C(=O)CCn1cccn1)CC2`, the cytotoxicity at 70.5 h was -2.96%. In the case of `Cn1cccc1-c1cc(C(=O)NCCc2nnc(N)s2)[nH]n1`, the cytotoxicity at 70.5 h turned out to be 4.96%.

For `Cc1cccc(C)c1Oc1ncccc1CNC(=O)C1(C)CCCNC1` (stereo not drawn), the cytotoxicity at 70.5 h is -7.62%.

For the compound `Cc1cc(C(=O)N2C[C@H]3CC[C@@H]2CN(Cc2ccccn2)C3)nc(N)n1`, the cytotoxicity at 70.5 h turned out to be 23.1%. The same measure for `CCCN(CC)C(=O)c1cc(Cn2c(C)nc3ccccc32)[nH]n1`: -4.58%; for `Cc1cccnc1CC(C)N(C)C(=O)c1cccs1` (stereo not drawn): -10.3%; for `CC(=O)Nc1ccc(Oc2ccc(CN3CCCC3)cc2F)cc1`: -3.88%.

With `O=C(NCc1cccnc1N1CCc2ccccc2C1)c1cnc[nH]1`, the cytotoxicity at 70.5 h was -10.2%. `O=C(CCCc1cn[nH]c1)N1C[C@@H](CN2CCCC2)C[C@H](CO)C1`: the cytotoxicity at 70.5 h was -6.82%.

For the compound `CCCOC(C)C(=O)N1CCC(O)(c2ccc3nc(C)ccc3c2)CC1` (stereo not drawn), the cytotoxicity at 70.5 h was -3.14%. Take `Cc1ccc(-c2noc(CN3CC(n4cc(C)cn4)C3)n2)cc1`: the cytotoxicity at 70.5 h was -0.527%. With `CCn1cnnc1C1CCN(C(=O)c2ccc(Cl)cc2OC)CC1`, the cytotoxicity at 70.5 h was -9.75%.

As to `CCc1nccn1C1CCCN(C(=O)c2ccc3c(c2)nnn3C)C1` (stereo not drawn), the cytotoxicity at 70.5 h is -5.62%.

Take `CC(C)c1cc(NC(=O)c2ccc([S+]([O-])C(C)C)cc2)[nH]n1` (stereo not drawn): the cytotoxicity at 70.5 h was -3.24%.

As for `CC(C)c1cc(NC(=O)c2ccncc2)[nH]n1`, the cytotoxicity at 70.5 h was 2.62%. As to `Cc1nc(C)n(CC2CCCN2Cc2ncc(C(C)(C)C)o2)n1` (stereo not drawn), the cytotoxicity at 70.5 h was -4.1%. Turning to `CCc1noc(CNc2ccc(C(=O)N3CCCC3)cc2C)n1`, the cytotoxicity at 70.5 h was 10.5%. Under `CCc1nccn1C1CCCN(C(=O)c2ccc(-n3ccnc3)cc2)C1` (stereo not drawn) stands -10.5%. Take `Cc1cnn(CC2CCCCN2Cc2ncc(C(C)(C)C)o2)c1` (stereo not drawn): the cytotoxicity at 70.5 h is -7.03%.

On to `Cc1oc(C(=O)O)cc1S(=O)(=O)Nc1cc(Br)ccc1Cl`, for which the cytotoxicity at 70.5 h was 1.56%. For `CC(C)c1nn(C)c(N(C)C)c1CNC(C)c1ccccc1F` (stereo not drawn), the cytotoxicity at 70.5 h is -1.04%.

As to `CCn1cc(CN2CCCN(C(=O)CCN3CCCC3=O)CC2)cn1`, the cytotoxicity at 70.5 h is -3.66%. On to `CC1CCCN(Cc2ccc(OCc3nccn3C)cc2)C1` (stereo not drawn), for which the cytotoxicity at 70.5 h amounted to 14.2%. Consider `Cc1ccc(-c2nc(C(=O)NCC3CCOC3)cs2)cc1` (stereo not drawn), for which the cytotoxicity at 70.5 h was -15.2%. For the compound `O=C(NCC1CCOC1)c1csc(-c2ccc(Cl)cc2)n1` (stereo not drawn), the cytotoxicity at 70.5 h is -26.9%. Take `O=C(NCC1CCOC1)c1csc(-c2ccc(F)cc2)n1` (stereo not drawn): the cytotoxicity at 70.5 h is -6.03%.

Turning to `CCN(Cc1nc2c(cnn2C)c(=O)[nH]1)Cc1ccco1`, the cytotoxicity at 70.5 h was -13.6%.

For `Cc1ccc(CN(Cc2nc3c(cnn3C)c(=O)[nH]2)C2CC2)o1`, the cytotoxicity at 70.5 h is -5.9%. For `CN(C)C(=O)CN1CCN(Cc2coc(-c3cccc(F)c3)n2)CC1`, the cytotoxicity at 70.5 h is -11.2%. `Cc1nccc(CNC(=O)CCc2c(C)nc3cc(O)nn3c2C)n1`: the cytotoxicity at 70.5 h was -5.73%.
